Reference: ChEMBL document CHEMBL1201862, “PubChem BioAssay data set” (2004)
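The compound was tested at five concentrations on cells cultured in 96-well plates, with a 48-hour exposure period. The concentration for 50% growth inhibition is given as GI50.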 Active and inactive are the calls of the source. No stated cut-off is given here; in the data, active = GI50 up to about 1.1 µM and inactive = higher.

Tests used:
Assay in all cases: DTP human tumour cell line panel, 48 h
K562 = test system: K562
NCI-H23 = test system: NCI-H23
A498 = test system: A498
UO-31 = test system: UO-31
MCF7 = test system: MCF7
SN12C = test system: SN12C
SNB-75 = test system: SNB-75
NCI-H522 = test system: NCI-H522
786-0 = test system: 786-0
MDA-MB-231 = test system: MDA-MB-231
ACHN = test system: ACHN
M14 = test system: M14
HT-29 = test system: HT-29
SNB-19 = test system: SNB-19
T47D = test system: T47D
SK-MEL-28 = test system: SK-MEL-28
RXF 393 = test system: RXF 393
SF-268 = test system: SF-268
UACC-62 = test system: UACC-62
TK-10 = test system: TK-10

Structure (SMILES)	GI50 (K562)	GI50 (NCI-H23)	GI50 (A498)	GI50 (UO-31)	GI50 (MCF7)	GI50 (SN12C)	GI50 (SNB-75)	GI50 (NCI-H522)	GI50 (786-0)	GI50 (MDA-MB-231)	GI50 (ACHN)	GI50 (M14)	GI50 (HT-29)	GI50 (SNB-19)	GI50 (T47D)	GI50 (SK-MEL-28)	GI50 (RXF 393)	GI50 (SF-268)	GI50 (UACC-62)	GI50 (TK-10)
CCOC(=O)/C=C(/OCC)[C@@H]1C(C(=O)c2ccc(Cl)cc2)[C@H]1/C(=C\C(=O)OCC)OCC (stereo not given in full)	4.55 µM (inactive)	> 76.9 µM (inactive)	> 100 µM (inactive)	8.79 µM (inactive)	> 100 µM (inactive)	> 100 µM (inactive)	25.5 µM (inactive)	> 45.2 µM (inactive)	> 100 µM (inactive)	> 44.4 µM (inactive)	> 100 µM (inactive)	> 100 µM (inactive)	> 51.2 µM (inactive)	> 100 µM (inactive)	> 72.9 µM (inactive)	> 100 µM (inactive)	96.8 µM (inactive)	> 100 µM (inactive)	> 30.7 µM (inactive)	> 40.5 µM (inactive)
CC(C)Cc1ccc(C(C)/C=C2\CCC(CN3CCCCC3)C2=O)cc1 (stereo not given)	2.46 µM (inactive)	7.29 µM (inactive)	14.3 µM (inactive)	10.6 µM (inactive)	1.64 µM (inactive)	2.12 µM (inactive)	15.6 µM (inactive)	1.35 µM (inactive)	1.85 µM (inactive)	4.89 µM (inactive)	6.98 µM (inactive)	6.1 µM (inactive)	5.12 µM (inactive)	12 µM (inactive)	5.09 µM (inactive)	3.21 µM (inactive)	2.52 µM (inactive)	3.66 µM (inactive)	10.5 µM (inactive)	3.27 µM (inactive)
CC(NC1=NCCO1)c1ccccc1Cl (stereo not given)	> 100 µM (inactive)	> 100 µM (inactive)	> 100 µM (inactive)	> 100 µM (inactive)	> 100 µM (inactive)	> 100 µM (inactive)	96.2 µM (inactive)	> 100 µM (inactive)	> 100 µM (inactive)	> 100 µM (inactive)	> 100 µM (inactive)	> 100 µM (inactive)	25.1 µM (inactive)	> 100 µM (inactive)	> 100 µM (inactive)	> 100 µM (inactive)	> 100 µM (inactive)	> 100 µM (inactive)	> 100 µM (inactive)	> 100 µM (inactive)
c1cc(-c2ccc(-c3ccc(-c4ccc(-c5ccncc5)o4)cc3)o2)ccn1	15.7 µM (inactive)	16.9 µM (inactive)	> 100 µM (inactive)	21.5 µM (inactive)	18.8 µM (inactive)	22.4 µM (inactive)	18.9 µM (inactive)	15.3 µM (inactive)	15.9 µM (inactive)	29 µM (inactive)	24.6 µM (inactive)	17.7 µM (inactive)	11.8 µM (inactive)	18.5 µM (inactive)	11.4 µM (inactive)	21.2 µM (inactive)	> 100 µM (inactive)	20.7 µM (inactive)	17.9 µM (inactive)	17 µM (inactive)
CC(=O)C1(c2ccccc2)CCN(Cn2sc3nc(C)cc(C)c3c2=O)CC1	26.7 µM (inactive)	19.1 µM (inactive)	78.2 µM (inactive)	16.5 µM (inactive)	40 µM (inactive)	21.4 µM (inactive)	28.3 µM (inactive)	12.4 µM (inactive)	16.9 µM (inactive)	33 µM (inactive)	17.8 µM (inactive)	25.8 µM (inactive)	19.1 µM (inactive)	> 100 µM (inactive)	55.6 µM (inactive)	31.6 µM (inactive)	20.8 µM (inactive)	34.8 µM (inactive)	28.9 µM (inactive)	20.1 µM (inactive)
C=C(C(=O)O[C@H]1C/C(C)=C/CC/C(CO)=C/[C@H]2C(=O)OC(=C)[C@H]12)C(O)CO (stereo not given in full)	4.08 µM (inactive)	16.3 µM (inactive)	18.5 µM (inactive)	8.18 µM (inactive)	11.5 µM (inactive)	15.3 µM (inactive)	18.7 µM (inactive)	1.68 µM (inactive)	5.98 µM (inactive)	17.9 µM (inactive)	12.3 µM (inactive)	12.2 µM (inactive)	17.9 µM (inactive)	21.4 µM (inactive)	3.75 µM (inactive)	14.5 µM (inactive)	8.28 µM (inactive)	18.7 µM (inactive)	17.5 µM (inactive)	7.93 µM (inactive)
CCc1nc(N)nc(N)c1-c1ccc(Cl)c([N+](=O)[O-])c1	0.0156 µM (active)	0.0887 µM (active)	2.49 µM (inactive)	1.18 µM (inactive)	0.274 µM (active)	1.79 µM (inactive)	4.29 µM (inactive)	0.719 µM (active)	0.0869 µM (active)	24.4 µM (inactive)	0.1 µM (active)	0.0735 µM (active)	0.0588 µM (active)	10.5 µM (inactive)	10.5 µM (inactive)	37.9 µM (inactive)	10.8 µM (inactive)	0.239 µM (active)	0.0573 µM (active)	17.9 µM (inactive)
